Experimental data: patent publication US8815872B2, “Macrocyclics pyrimidines as aurora kinase inhibitors” (Merck Patent GmbH, priority 2008, dated 2014)

What was measured:
Type in all cases: biochemical
JAK2(h) = biological target: T1, JAK2(h) (Homo sapiens, UniProt O60674); test: Other kinases, single-concentration inhibition (Table 3)
T1 construct: purchased Caliper Life Sciences
In short: (§1)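 Each kinase was preincubated with a single compound concentration, and the reaction was then initiated with a labelled peptide substrate/ATP mix. After 90 min at 25 °C, reactions were quenched with EDTA and conversion was read by mobility shift.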

Ret(h) [1] = biological target: T2, Ret(h) (Homo sapiens, UniProt P07949); test: as above
T2 construct: purchased Caliper Life Sciences
T2 sequence (P07949 29-1114): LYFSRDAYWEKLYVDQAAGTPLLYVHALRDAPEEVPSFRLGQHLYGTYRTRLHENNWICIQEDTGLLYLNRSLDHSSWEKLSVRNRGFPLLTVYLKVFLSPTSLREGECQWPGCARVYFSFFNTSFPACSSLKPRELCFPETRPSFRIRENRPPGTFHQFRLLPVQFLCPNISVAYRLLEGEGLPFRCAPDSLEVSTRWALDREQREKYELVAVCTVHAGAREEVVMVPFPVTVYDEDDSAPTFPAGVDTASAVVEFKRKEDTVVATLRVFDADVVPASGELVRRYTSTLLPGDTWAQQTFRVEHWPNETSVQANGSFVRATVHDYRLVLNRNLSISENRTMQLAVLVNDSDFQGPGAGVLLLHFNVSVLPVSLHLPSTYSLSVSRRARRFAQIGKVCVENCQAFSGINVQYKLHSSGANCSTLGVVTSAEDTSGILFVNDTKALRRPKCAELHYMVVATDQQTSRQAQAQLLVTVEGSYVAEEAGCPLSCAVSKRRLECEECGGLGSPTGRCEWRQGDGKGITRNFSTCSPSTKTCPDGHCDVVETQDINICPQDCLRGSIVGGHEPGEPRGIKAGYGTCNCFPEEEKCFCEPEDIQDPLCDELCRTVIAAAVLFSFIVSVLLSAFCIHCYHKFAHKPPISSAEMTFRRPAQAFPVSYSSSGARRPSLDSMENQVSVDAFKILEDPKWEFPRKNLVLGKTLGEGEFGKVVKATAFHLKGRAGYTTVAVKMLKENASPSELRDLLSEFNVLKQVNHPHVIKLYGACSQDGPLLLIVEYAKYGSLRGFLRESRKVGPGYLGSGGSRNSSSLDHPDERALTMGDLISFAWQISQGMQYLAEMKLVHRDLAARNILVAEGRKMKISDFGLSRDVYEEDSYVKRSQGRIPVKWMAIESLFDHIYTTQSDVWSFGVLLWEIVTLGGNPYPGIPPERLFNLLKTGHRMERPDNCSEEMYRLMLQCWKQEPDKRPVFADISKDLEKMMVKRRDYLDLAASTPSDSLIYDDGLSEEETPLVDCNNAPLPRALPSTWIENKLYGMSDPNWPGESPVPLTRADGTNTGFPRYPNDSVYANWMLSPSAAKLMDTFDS
In short: as §1

Abl(T315I)(h) = biological target: T3, Abl(T315I)(h) (Homo sapiens, UniProt P00519, T315I); test: as above
T3 construct: purchased Caliper Life Sciences
In short: as §1

Ret(h) [2] = biological target: T2, Ret(h); test: Inhibition of other kinases IC50 (Table 2)
Procedure: (§2) The Aurora and other kinase assays described here were performed on two Caliper Life Sciences systems, the LC3000 and the Desktop Profiler. These provide data on enzyme activity via measurement of the relative amounts of phosphorylated or unphosphorylated fluorescently labelled substrate peptide at the end of an enzymatic reaction. These different states of peptide are resolved by applying a potential difference across the sample. The presence of a charged phosphate group on the product (as opposed to the substrate) causes a different peptide mobility between the two peptides. This is visualized by excitation of a fluorescent label on the substrate and product peptides and represented as peaks within the analysis software.

Tie2(h) = biological target: T4, Tie2(h) (Homo sapiens, UniProt Q02763); test: Inhibition of other kinases IC50 (Table 2)
T4 construct: purchased Caliper Life Sciences
T4 sequence (Q02763 23-1124): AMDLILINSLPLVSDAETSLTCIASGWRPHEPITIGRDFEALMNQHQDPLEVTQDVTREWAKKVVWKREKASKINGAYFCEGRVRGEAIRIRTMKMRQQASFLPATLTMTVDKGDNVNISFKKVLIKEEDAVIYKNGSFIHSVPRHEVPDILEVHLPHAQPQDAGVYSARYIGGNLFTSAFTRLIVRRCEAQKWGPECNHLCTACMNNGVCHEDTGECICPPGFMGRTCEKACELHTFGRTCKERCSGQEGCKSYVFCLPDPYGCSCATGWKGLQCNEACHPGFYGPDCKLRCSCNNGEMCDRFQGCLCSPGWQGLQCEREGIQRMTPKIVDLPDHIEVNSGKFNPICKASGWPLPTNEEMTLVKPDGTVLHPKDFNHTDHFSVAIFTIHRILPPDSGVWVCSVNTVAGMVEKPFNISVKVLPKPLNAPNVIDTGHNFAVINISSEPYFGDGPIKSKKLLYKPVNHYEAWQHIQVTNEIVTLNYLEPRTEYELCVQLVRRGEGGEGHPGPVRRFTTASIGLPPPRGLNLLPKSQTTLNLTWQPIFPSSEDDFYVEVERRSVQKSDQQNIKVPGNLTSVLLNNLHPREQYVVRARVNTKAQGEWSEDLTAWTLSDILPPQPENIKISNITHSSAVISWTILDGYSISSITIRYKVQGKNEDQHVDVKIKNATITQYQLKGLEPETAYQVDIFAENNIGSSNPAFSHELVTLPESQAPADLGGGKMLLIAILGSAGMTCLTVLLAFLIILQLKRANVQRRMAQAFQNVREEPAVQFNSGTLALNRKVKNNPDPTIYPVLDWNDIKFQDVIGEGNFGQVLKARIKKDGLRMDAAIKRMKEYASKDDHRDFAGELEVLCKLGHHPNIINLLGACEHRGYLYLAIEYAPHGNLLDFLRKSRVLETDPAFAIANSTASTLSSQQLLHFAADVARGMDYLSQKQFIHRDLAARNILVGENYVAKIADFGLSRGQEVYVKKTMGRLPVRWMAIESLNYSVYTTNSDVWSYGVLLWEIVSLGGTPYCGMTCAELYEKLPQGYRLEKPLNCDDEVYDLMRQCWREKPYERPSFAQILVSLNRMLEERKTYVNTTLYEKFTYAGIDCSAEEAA
Procedure: as §2

IRAK4(h) = biological target: T5, IRAK4(h) (Homo sapiens, UniProt Q9NWZ3); test: Inhibition of other kinases IC50 (Table 2)
T5 construct: purchased Caliper Life Sciences
T5 sequence (Q9NWZ3 1-460): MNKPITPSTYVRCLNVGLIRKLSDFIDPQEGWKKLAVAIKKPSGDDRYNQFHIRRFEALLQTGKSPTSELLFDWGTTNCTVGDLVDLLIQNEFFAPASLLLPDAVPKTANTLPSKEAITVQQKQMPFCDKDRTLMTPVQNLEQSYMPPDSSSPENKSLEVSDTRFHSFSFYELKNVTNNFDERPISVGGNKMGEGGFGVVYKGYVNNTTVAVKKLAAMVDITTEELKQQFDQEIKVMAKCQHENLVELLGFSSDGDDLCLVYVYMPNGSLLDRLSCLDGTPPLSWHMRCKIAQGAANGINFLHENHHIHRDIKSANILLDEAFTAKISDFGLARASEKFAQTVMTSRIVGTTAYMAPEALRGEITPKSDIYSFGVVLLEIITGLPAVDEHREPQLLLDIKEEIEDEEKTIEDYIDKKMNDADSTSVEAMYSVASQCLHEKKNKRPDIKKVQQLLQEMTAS
Procedure: as §2

T1 sequence (O60674 whole entry): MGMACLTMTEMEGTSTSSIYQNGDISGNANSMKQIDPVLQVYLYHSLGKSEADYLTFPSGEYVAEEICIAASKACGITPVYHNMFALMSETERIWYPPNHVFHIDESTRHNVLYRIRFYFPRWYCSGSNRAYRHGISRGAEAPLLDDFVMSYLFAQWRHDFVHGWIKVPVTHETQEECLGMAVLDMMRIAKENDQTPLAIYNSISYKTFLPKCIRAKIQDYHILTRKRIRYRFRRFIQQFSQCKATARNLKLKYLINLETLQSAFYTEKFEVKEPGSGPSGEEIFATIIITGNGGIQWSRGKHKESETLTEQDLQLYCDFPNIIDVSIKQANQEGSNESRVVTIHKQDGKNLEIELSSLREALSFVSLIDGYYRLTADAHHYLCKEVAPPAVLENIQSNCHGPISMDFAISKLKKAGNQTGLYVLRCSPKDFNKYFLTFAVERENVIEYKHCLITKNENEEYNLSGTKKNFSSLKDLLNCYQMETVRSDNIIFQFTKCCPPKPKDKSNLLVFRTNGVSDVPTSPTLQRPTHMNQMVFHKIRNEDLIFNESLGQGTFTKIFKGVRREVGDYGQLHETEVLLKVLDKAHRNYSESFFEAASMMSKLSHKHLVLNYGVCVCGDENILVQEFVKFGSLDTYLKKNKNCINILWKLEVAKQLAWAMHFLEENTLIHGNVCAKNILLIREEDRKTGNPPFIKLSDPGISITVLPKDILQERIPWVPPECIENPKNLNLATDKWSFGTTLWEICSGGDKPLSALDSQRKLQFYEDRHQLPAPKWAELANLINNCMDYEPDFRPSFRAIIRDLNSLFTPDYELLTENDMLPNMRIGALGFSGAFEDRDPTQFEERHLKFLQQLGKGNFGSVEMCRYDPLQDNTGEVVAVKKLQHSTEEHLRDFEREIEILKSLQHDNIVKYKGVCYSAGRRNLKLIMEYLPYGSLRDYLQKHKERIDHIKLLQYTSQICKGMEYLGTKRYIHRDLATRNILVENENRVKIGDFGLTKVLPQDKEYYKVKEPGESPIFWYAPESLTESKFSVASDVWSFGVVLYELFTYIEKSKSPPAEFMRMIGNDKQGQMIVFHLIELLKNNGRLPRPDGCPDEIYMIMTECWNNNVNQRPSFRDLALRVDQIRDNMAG

Structure (SMILES) | % inhibition JAK2(h) (JAK2(h); 1 μM) [%] | % inhibition Ret(h) (Ret(h) [1]; 1 μM) [%] | % inhibition Abl(T315I)(h) (Abl(T315I)(h); 1 μM) [%] | IC50 (Ret(h) [2]) [nM] | IC50 (Tie2(h)) [nM] | IC50 (IRAK4(h)) [nM] | % inhibition JAK2(h) (JAK2(h); 10 μM) [%] | % inhibition Ret(h) (Ret(h) [1]; 10 μM) [%] | % inhibition Abl(T315I)(h) (Abl(T315I)(h); 10 μM) [%]
NC(=O)[C@H]1[C@H]2C[C@H]3[C@H]1Nc1nc(ncc1F)Nc1cccc(c1)OCCS[C@@H]3C2 [Example 20] | 46 | 11 | 34 | 101 to 1000 | 101 to 1000 | 101 to 1000 | – | – | –
O=C(O)[C@H]1[C@H]2C[C@H]3[C@H]1Nc1nc(ncc1F)Nc1cccc(c1)OCCS[C@@H]3C2 [Example 21] | – | – | – | – | – | – | 48 | 35 | 38
CN1CCN(c2ccc3cc2OCCS[C@@H]2C[C@@H]4C[C@H]2[C@@H](Nc2nc(ncc2F)N3)[C@H]4C(N)=O)CC1 [Example 22] | 111 | 4 | 13 | – | – | – | – | – | –
CN1CCN(c2ccc3cc2NC(=O)CS[C@@H]2C[C@@H]4C[C@H]2[C@@H](Nc2nc(ncc2F)N3)[C@H]4C(N)=O)CC1 [Example 24] | 60 | 1 | 0 | – | – | – | – | – | –
N#Cc1ccc2cc1NC(=O)CS[C@@H]1C[C@@H]3C[C@H]1[C@@H](Nc1nc(ncc1F)N2)[C@H]3C(N)=O [Example 26] | 16 | 50 | 2 | – | – | – | – | – | –
NC(=O)[C@H]1[C@H]2C[C@H]3[C@H]1Nc1nc(ncc1F)Nc1cccc(c1)NC(=O)CS[C@@H]3C2 [Example 27] | 62 | 4 | 1 | 1 to 100 | 101 to 1000 | 1 to 100 | – | – | –
